Laboratory results from US20230339856A1, “NOVEL PHARMACOLOGICAL CHAPERONE COMPOUNDS OF HUMAN ACID ALPHA-GLUCOSIDASE AND THE THERAPEUTIC USE THEREOF” (UNIVERSITÉ GRENOBLE ALPES, priority 2020, published 2023).
Where two headings read alike, the source gives them in different places.

How the values were obtained:
[1] = biological target: T1, recombinant human acid α-glucosidase (rhGAA) (Homo sapiens (Human), UniProt P10253); assay: Inhibition of rhGAA determined by Fluopol-ABPP; type: binding; conditions: McIlvaine buffer pH 5.0, 37° C., TAMRA probe
From the text: The inhibiting activity on recombinant human acid α-glucosidase (rhGAA) of the compounds is implemented using the Fluopol-ABPP method (Fluorescence Polarization Activity Based Protein Profiling) described in the publication of Lahav et al., 2017, J. Am. Chem. Soc. 139: 14192-14197. This technique, based on the competition between an inhibitor and a fluorescent probe capable of binding covalently to the active site of an enzyme, makes it possible to measure the affinity of this inhibitor for the active site of the rhGAA enzyme used for these experiments by the laboratory of Professors Herman S. Overkleeft and Johanes M. F. G. Aerts, Leiden Institute of Chemistry, Leiden University (NL), is the enzyme marketed under the name Myozyme®. […] The […] (TAMRA) fluorescent probe in solution (25 nM) in the buffer is next added to the mixture. After 4 hours, the samples are irradiated with a polarized light (λ=530 nm) and the fluorescence emitted (λ=580 nm) is measured by means of an Infinite® M1000Pro (Tecan) spectrofluorimeter. For each concentration of inhibitor, the percentage of inhibition of the enzyme is determined by the formula:
%Inhibition=[Fmeasured−Fcontrol1)/Fcontro2)×100
The IC50 values are calculated by a non-linear regression of the % inhibition as a function of the concentration [I] by means of the GraphPad Prism 6.0 software. The results are a mean of three identical experiments (triplicates).

[2] = biological target: T1, recombinant human acid α-glucosidase (rhGAA); assay: Inhibition of rhGAA determined by measuring the residual activity in vitro; type: biochemical; conditions: sodium acetate buffer pH 4.0, 37° C.; for IC50: 4-nitrophenyl-α-D-glucopyranoside substrate
rhGAA = rhGAA (Homo sapiens (Human), UniProt P10253); assay: Thermal stabilization of rhGAA by DSF (differential scanning fluorimetry); type: binding
Protocol: The stabilization of rhGAA in the presence of the compounds is determined in accordance with the method described in the publication of Niesen et al., 2007, Nat. Protoc. 2: 2212-2221. The rhGAA enzyme (2.5 μg, 0.1 mg/mL) is incubated in the absence and in the presence of each compound (at a concentration [I]=100 μM), of SYPRO® orange dye (Life Technologies), and of sodium phosphate buffer (25 mM) and of NaCI (150 mM), pH 7.4 or of sodium acetate buffer (25 mmol) and of NaCl (150 mM), pH 4.0. The thermal stability of the enzyme in these various conditions is evaluated by DSF (differential scanning fluorimetry) by varying the temperature by 1° C./min over an interval of 25 to 95° C., and measuring the fluorescence of the SYPRO® orange dye every minute by means of a Real-Time Cycler spectrofluorimeter (Biorad). The relative fluorescence is determined by comparing each fluorescence value measured with that of the maximum fluorescence value of the SYPRO® orange dye for each scan. The results are a mean of three identical experiments (triplicates).

[3] = biological target: α-glucosidase II of the endoplasmic reticulum (GANAB) (Homo sapiens (Human), UniProt Q14697); assay: Inhibition of GANAB in lysates of fibroblasts of Pompe patients; type: biochemical; conditions: pH 7.0, 4-methyl-umbelliferone-α-D-glucopyranoside 2.4 mM, 2 hours
Protocol: (§1) The selectivity of the compounds was evaluated in the laboratory of Professors Herman S. Overkleeft and Johanes M. F. G. Aerts, Leiden Institute of Chemistry, Leiden University (NL). The enzymes used for determining the selectivity of inhibition of the compounds with respect to various human enzymes are the α-glucosidase II of the endoplasmic reticulum (GANAB), recombinant human lysosomal β-glucocerebrosidase (GBA1), human non-lysosomal β-glucosylceramidase (GBA2) and β-glucosylceramide synthase (GCS). The inhibiting activity of the compounds on these various enzymes is determined as described in the publication by Artola et al., 2017, ACS Cent. Sci. 3: 784-793. The enzyme GBA1 sold under the name Cerezyme® and the enzyme rhGAA sold under the name Myozyme® are used. The human GANAB enzyme used for this study is that of fibroblasts of patients suffering from Pompe disease diagnosed as lacking active GAA and voluntary donors. These fibroblasts were cultivated on an HAMF12-DMEM medium (Sigma) supplemented by 10% (v/v) FCS (fetal calf serum). The GBA2 enzyme was over-expressed in HEK298T cells cultivated on a DMEM medium enriched with glucose (Gibco) supplemented by 10% NBS (newborn bovine serum) and 100 units/mL of penicillin/streptomycin (Gibco) and 5% CO2 at 37° C. The activity of the compounds on human β-glucosylceramide synthase (GCS) is evaluated in situ on cells of the RAW 264.7 type cultivated on an RPMI medium (Gibco) supplemented by 10% FCS, 1 mM of glutamax, 100 units/mL of penicillin/streptomycin (Gibco) and 5% CO2 at 37° C.
(§2) These cell lysates are homogenized using a SilentCrusher grinder (Heidolph®), and then subjected to ultracentrifugation at 32,000 rpm for 30 minutes at 4° C. The total protein concentration is determined in accordance with the Bradford method (Bradford, 1976, Anal. Biochem. 72: 248-254), using a Bradford BioRad Quick Start® kit (Pierce) and BSA (Sigma). The lysates are next aliquoted and stored at −80° C. before use.

[4] = biological target: recombinant human lysosomal β-glucocerebrosidase (GBA1) (Homo sapiens (Human), UniProt P04062, R534H); assay: Inhibition of GBA1 (Cerezyme); type: biochemical; conditions: pH 5.2, 4-methyl-umbelliferone-β-D-glucopyranoside 3.0 mM, 30 minutes
Protocol: as §1

[5] = biological target: human non-lysosomal β-glucosylceramidase (GBA2) (Homo sapiens (Human), UniProt Q9HCG7); assay: Inhibition of GBA2 in lysates of HEK298T cells over-expressing GBA2; type: biochemical; conditions: pH 5.8, 4-methyl-umbelliferone-β-D-glucopyranoside 3.0 mM, 1 hour
Protocol: as §1, §2
The residual activity of GBA2 in the presence of the compounds is determined after pre-incubation for 30 minutes of the homogenates of HEK298T cells over-expressing GBA2 with an inhibitor of GBA1, conduritol β-epoxide (Sigma), at a concentration of 1 mM.

[6] = biological target: β-glucosylceramide synthase (GCS) (Mus musculus (Mouse), UniProt O88693); assay: Inhibition of GCS in situ in RAW 264.7 cells; type: cell-based; conditions: pH 7.0, 1 μM NBD-ceramide
Protocol: as §1, §2
The residual activity of GCS in the presence of the compounds is determined after pre-incubation for 1 hour of the homogenates of RAW 264.7 cells with an inhibitor of GBA1, conduritol β-epoxide (Sigma), at a concentration of 300 μM.
The I50 values for the GCS enzyme are determined in situ in the cell culture medium at pH 7.0 using 1 μM of NBD-ceramide (N-[12-[(7-nitro-2-1,3-benzoxadiazol-4-yl)amino]dodecanoyl]-D-erythro-sphingosine) as substrate, as described in the aforementioned publication of Lahav et al.

[7] = [I]=100 μM, pH 4.0, read-out: rhGAA ΔTm at pH 4.0
[8] = [I]=100 μM, pH 7.4, read-out: rhGAA ΔTm at pH 7.4

Chain of β-glucosylceramide synthase (GCS) (O88693 whole entry): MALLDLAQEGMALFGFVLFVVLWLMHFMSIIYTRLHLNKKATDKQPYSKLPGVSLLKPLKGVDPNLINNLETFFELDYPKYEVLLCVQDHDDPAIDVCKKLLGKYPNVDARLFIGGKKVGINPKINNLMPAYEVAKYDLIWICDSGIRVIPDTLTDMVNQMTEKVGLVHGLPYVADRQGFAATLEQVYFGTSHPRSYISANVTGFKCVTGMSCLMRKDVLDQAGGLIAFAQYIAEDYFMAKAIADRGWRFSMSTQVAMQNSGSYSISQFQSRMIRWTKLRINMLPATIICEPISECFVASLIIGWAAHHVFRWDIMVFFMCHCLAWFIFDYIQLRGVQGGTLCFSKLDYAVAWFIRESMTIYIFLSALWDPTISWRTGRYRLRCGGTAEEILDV
Chain of α-glucosidase II of the endoplasmic reticulum (GANAB) (Q14697 29-944): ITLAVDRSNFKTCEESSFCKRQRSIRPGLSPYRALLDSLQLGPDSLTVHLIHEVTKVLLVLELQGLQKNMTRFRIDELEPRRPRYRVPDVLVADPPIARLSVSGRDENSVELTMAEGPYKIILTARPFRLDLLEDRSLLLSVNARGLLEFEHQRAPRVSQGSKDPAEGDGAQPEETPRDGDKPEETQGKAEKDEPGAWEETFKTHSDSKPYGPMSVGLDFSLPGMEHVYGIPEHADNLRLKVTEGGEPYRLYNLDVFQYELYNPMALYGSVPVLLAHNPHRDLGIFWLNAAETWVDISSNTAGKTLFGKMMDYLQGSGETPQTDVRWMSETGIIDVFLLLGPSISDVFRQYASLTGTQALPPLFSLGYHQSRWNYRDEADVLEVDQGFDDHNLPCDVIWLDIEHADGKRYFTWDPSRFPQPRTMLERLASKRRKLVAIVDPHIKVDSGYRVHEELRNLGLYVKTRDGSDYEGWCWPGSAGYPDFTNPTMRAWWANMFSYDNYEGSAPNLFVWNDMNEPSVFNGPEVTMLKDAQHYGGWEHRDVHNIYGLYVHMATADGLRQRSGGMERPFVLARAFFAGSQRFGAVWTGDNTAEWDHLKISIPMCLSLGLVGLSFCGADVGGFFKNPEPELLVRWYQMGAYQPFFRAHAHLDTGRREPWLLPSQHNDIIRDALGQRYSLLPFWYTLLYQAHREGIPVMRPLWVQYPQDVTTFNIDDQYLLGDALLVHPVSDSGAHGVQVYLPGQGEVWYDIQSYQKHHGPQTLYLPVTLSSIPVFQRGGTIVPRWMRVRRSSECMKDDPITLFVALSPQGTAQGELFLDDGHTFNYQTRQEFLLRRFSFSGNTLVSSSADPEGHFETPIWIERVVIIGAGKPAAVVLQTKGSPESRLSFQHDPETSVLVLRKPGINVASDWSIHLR
Chain of α-glucosidase II of the endoplasmic reticulum (GANAB) (P14314 15-528 partner): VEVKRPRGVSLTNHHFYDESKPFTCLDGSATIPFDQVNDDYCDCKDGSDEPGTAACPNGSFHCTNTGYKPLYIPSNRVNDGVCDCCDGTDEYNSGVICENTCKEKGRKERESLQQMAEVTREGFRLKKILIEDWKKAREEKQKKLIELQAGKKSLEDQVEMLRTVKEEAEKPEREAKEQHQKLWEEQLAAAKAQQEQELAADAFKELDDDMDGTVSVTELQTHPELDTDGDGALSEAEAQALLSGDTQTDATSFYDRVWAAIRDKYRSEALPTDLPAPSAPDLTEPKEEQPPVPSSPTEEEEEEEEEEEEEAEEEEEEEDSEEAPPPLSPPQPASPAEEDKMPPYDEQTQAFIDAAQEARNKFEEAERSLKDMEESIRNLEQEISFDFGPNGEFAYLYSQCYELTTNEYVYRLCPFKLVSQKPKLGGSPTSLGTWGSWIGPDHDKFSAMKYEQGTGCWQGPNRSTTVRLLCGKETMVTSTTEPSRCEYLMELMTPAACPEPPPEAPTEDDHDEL
Chain of recombinant human lysosomal β-glucocerebrosidase (GBA1) (P04062 40-536 R534H limits assumed): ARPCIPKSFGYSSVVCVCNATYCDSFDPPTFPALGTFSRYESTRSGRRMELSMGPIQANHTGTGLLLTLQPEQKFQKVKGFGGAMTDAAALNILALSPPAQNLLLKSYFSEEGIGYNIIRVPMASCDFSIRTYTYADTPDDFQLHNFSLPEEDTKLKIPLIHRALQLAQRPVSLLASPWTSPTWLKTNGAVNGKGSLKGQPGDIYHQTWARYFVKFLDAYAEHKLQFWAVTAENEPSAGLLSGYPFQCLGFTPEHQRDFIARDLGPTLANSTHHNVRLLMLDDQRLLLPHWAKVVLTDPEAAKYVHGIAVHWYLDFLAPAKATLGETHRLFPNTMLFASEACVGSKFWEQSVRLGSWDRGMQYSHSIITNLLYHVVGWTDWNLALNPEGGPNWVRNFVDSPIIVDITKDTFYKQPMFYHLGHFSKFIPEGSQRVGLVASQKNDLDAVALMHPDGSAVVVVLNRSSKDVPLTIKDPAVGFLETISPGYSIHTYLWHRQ
Chain of human non-lysosomal β-glucosylceramidase (GBA2) (Q9HCG7 whole entry): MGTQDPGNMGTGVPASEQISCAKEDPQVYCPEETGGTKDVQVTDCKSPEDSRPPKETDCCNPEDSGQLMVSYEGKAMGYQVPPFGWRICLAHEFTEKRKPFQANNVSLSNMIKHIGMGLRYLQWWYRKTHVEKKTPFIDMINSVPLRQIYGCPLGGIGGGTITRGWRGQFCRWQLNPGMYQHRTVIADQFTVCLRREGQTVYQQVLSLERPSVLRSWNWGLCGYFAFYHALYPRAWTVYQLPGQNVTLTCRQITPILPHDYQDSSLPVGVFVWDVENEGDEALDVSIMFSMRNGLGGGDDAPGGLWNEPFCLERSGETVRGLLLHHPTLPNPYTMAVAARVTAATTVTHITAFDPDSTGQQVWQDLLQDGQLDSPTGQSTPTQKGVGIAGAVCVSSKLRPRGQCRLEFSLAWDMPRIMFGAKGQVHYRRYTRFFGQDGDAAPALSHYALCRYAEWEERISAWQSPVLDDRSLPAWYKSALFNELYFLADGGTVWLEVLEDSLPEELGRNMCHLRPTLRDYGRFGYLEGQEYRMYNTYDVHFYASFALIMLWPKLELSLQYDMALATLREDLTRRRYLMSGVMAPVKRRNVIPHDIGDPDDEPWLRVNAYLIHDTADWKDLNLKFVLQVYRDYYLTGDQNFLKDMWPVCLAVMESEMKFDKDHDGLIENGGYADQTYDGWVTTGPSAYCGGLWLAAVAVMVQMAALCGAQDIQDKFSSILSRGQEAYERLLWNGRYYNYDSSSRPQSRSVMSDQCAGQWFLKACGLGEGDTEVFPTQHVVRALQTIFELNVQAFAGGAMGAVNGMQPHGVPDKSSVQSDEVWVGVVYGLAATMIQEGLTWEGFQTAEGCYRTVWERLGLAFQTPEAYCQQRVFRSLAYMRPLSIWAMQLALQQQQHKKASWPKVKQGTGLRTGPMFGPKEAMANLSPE

SMILES	IC50 [1] [µM]	Ki [2] [µM]	IC50 [2] [µM]	ΔTm at 100 µM (rhGAA; [8]) [°C]	IC50 [3] [µM]	IC50 [4] [µM]	IC50 [5] [µM]	IC50 [6] [µM]	also measured
OCC[C@]1(CO)NC[C@H](O)[C@@H](O)[C@@H]1O [(IId), (2R,3R,4R,5S)-2-(2-hydroxyethyl)-2-(hydroxymethyl)piperidine-3,4,5-triol]	0.15	18.9	182	10.7	> 100	> 1000	> 1000	> 50	ΔTm at 100 µM (rhGAA; [7]): 9.4 °C
OC[C@@]1(CCC2CCCCC2)NC[C@H](O)[C@@H](O)[C@@H]1O [Compound (IIb7), (2R,3R,4R,5S)-2-(2-cyclohexylethyl)-2-(hydroxymethyl)piperidine-3,4,5-triol]				16.8					
OC[C@H]1N2C[C@H](O)[C@@H](O)[C@H](O)[C@]12CO (stereo partly drawn) [Compound (IIk), (3S,4R,5R,6R,7S)-6,7-bis(hydroxymethyl)-1-azabicyclo[4.1.0]heptane-3,4,5-triol]	11.6								
OC[C@@H](O)[C@H]1N2C[C@H](O)[C@@H](O)[C@H](O)[C@]12CO (stereo partly drawn) [Compound (IIj), (3S,4R,5R,6R,7S)-7-((S)-1,2-dihydroxyethyl)-6-(hydroxymethyl)-1-azabicyclo[4.1.0]heptane-3,4,5-triol]	15.2								
OC[C@@]1(CCCc2ccccc2)NC[C@H](O)[C@@H](O)[C@@H]1O [Compound (IIc1), (2R,3R,4R,5S)-2-(hydroxymethyl)-2-(3-phenylpropyl)piperidine-3,4,5-triol]		13	32.9	15					
OC[C@@]12CCN1C[C@H](O)[C@@H](O)[C@@H]2O [Compound (IIh), (3S,4R,5R,6R)-6-(hydroxymethyl)-1-azabicyclo[4.2.0]octane-3,4,5-triol]	9.7								
OC[C@@]1(CCC23CC4CC(CC(C4)C2)C3)NC[C@H](O)[C@@H](O)[C@@H]1O [Compound (IIr)]		20	29.5						rhGAA ΔTm at pH 7.4 (rhGAA; [I]=100 μM, pH 7.4): 14.5 °C
OC[C@]12[C@@H](O)[C@H](O)[C@@H](O)CN1[C@@H]2C(O)c1ccccc1 (stereo in doubt) [Compound (IIm), (3S,4R,5R,6R,7S)-7-((S)-hydroxy(phenyl)methyl)-6-(hydroxymethyl)-1-azabicyclo[4.1.0]heptane-3,4,5-triol]	45								
CC[C@]1(CO)NC[C@H](O)[C@@H](O)[C@@H]1O [(IIa), (2R,3R,4R,5S)-2-ethyl-2-(hydroxymethyl)piperidine-3,4,5-triol]	0.42		341	12.7	> 100	> 1000	> 1000	> 50	ΔTm at 100 µM (rhGAA; [7]): 8.1 °C
OC[C@]12[C@@H](O)[C@H](O)[C@@H](O)CN1[C@@H]2[C@H](O)C1CCCCC1 (stereo partly drawn) [Compound (IIn), (3S,4R,5R,6R,7S)-7-((R)-cyclohexyl(hydroxy)methyl)-6-(hydroxymethyl)-1-azabicyclo[4.1.0]heptane-3,4,5-triol]	24.6								
CCC[C@]1(CO)NC[C@H](O)[C@@H](O)[C@@H]1O [(IIb), (2R,3R,4R,5S)-2-(hydroxymethyl)-2-propylpiperidine-3,4,5-triol]	0.39	13	104	11.5	> 100	> 1000	> 1000	> 50	ΔTm at 100 µM (rhGAA; [7]): 7.8 °C
CCCCCCC[C@]1(CO)NC[C@H](O)[C@@H](O)[C@@H]1O [Compound (IIb3), (2R,3R,4R,5S)-2-heptyl-2-(hydroxymethyl)piperidine-3,4,5-triol]		10.8	29.6	16.9					
C[Si](C)(C)CC[C@]1(CO)NC[C@H](O)[C@@H](O)[C@@H]1O [Compound (IIx1), (2R,3R,4R,5S)-2-(hydroxymethyl)-2-(2-(trimethylsilyl)ethyl)piperidine-3,4,5-triol]			40.3	16.5					
OC[C@@]12CCCCN1C[C@H](O)[C@@H](O)[C@@H]2O [(IIf), (1R,2R,3S,9aR)-9a-(hydroxymethyl)octahydro-1H-quinolizine-1,2,3-triol]	0.87		297	11.8	> 100	> 1000	> 1000	> 50	ΔTm at 100 µM (rhGAA; [7]): 6.4 °C
OC[C@@]12CCCN1C[C@H](O)[C@@H](O)[C@@H]2O [(IIg), (6S, 7R, 8R, 8aR)-8a-(hydroxymethyl)-octahydroindolizine-6,7,8-triol]	0.46		387		> 100	> 1000	> 1000	> 50	ΔTm at 100 µM (rhGAA; read-out: rhGAA ΔTm at pH 4.0): 6.7 °C; ΔTm at 100 µM (rhGAA; read-out: rhGAA ΔTm at pH 7.4): 14.4 °C
OC[C@@]1(CCc2ccccc2)NC[C@H](O)[C@@H](O)[C@@H]1O [(IIc), (2R,3R,4R,5S)-2-(hydroxymethyl)-2-phenethylpiperidine-3,4,5-triol]	0.22	7.6	37.2	13	> 100	> 1000	> 1000	> 50	ΔTm at 100 µM (rhGAA; [7]): 11.8 °C
CCCCC[C@]1(CO)NC[C@H](O)[C@@H](O)[C@@H]1O [Compound (IIb1), (2R,3R,4R,5S)-2-(hydroxymethyl)-2-pentylpiperidine-3,4,5-triol]		6.4	49.1	6.2					
